How the values were obtained:
[1] = Cytotoxicity in HEK293 cells assessed as inhibition of cell growth measured after 24 hrs by MTT assay; assay type: toxicity, cell-based; details: human
Escherichia coli [2] = test: Synergistic antibacterial activity against carbapenem-resistant Escherichia coli 571307 assessed as reduction in microbial growth at 4 ug/ml measured after 16 to 18 hrs in presence of imipenem by microbial dilution method; assay type: functional; details: dose 4 µg/ml, time 16-18 hrs
Klebsiella pneumoniae [3] = test: Synergistic antibacterial activity against carbapenem-resistant Klebsiella pneumoniae BAA-2473 assessed as reduction in microbial growth at 16 ug/ml measured after 16 to 18 hrs in presence of meropenem by microbial dilution method; assay type: functional; details: dose 16 µg/ml, time 16-18 hrs
Escherichia coli [4] = test: Synergistic antibacterial activity against carbapenem-resistant Escherichia coli BAA-2469 assessed as reduction in microbial growth at 8 ug/ml measured after 16 to 18 hrs in presence of meropenem by microbial dilution method; assay type: functional; details: dose 8 µg/ml, time 16-18 hrs
Klebsiella pneumoniae [5] = test: Synergistic antibacterial activity against carbapenem-resistant Klebsiella pneumoniae 565345 assessed as reduction in microbial growth at 16 ug/ml measured after 16 to 18 hrs in presence of meropenem by microbial dilution method; assay type: functional; details: dose 16 µg/ml, time 16-18 hrs
Escherichia coli [6] = test: Synergistic antibacterial activity against carbapenem-resistant Escherichia coli 541588 assessed as reduction in microbial growth at 16 ug/ml measured after 16 to 18 hrs in presence of imipenem by microbial dilution method; assay type: functional; details: dose 16 µg/ml, time 16-18 hrs
[7] = Inhibition of VIM-1 (unknown origin) using FC5 as substrate preincubated for 10 mins followed by substrate addition and measured immediately by fluorescence based analysis; set-up: species or system Bacteria
[8] = test system: Klebsiella pneumoniae subsp. pneumoniae; test: Synergistic antibacterial activity against carbapenem-resistant Klebsiella pneumoniae BAA-2472 assessed as reduction in microbial growth at 16 ug/ml measured after 16 to 18 hrs in presence of imipenem by microbial dilution method; assay type: functional; details: dose 16 µg/ml, time 16-18 hrs
Klebsiella pneumoniae [9] = test: Synergistic antibacterial activity against carbapenem-resistant Klebsiella pneumoniae BAA-2473 assessed as reduction in microbial growth at 8 ug/ml measured after 16 to 18 hrs in presence of imipenem by microbial dilution method; assay type: functional; details: dose 8 µg/ml, time 16-18 hrs
Escherichia coli [10] = test: Synergistic antibacterial activity against carbapenem-resistant Escherichia coli BAA-2471 assessed as reduction in microbial growth at 0.5 ug/ml measured after 16 to 18 hrs in presence of imipenem by microbial dilution method; assay type: functional; details: dose 0.5 µg/ml, time 16-18 hrs
Escherichia coli [11] = test: Synergistic antibacterial activity against carbapenem-resistant Escherichia coli BAA-2469 assessed as reduction in microbial growth at 8 ug/ml measured after 16 to 18 hrs in presence of imipenem by microbial dilution method; assay type: functional; details: dose 8 µg/ml, time 16-18 hrs
Escherichia coli [12] = test: Synergistic antibacterial activity against carbapenem-resistant Escherichia coli 567975 assessed as reduction in microbial growth at 16 ug/ml measured after 16 to 18 hrs in presence of meropenem by microbial dilution method; assay type: functional; details: dose 16 µg/ml, time 16-18 hrs
Klebsiella pneumoniae [13] = test: Synergistic antibacterial activity against carbapenem-resistant Klebsiella pneumoniae 538961 assessed as reduction in microbial growth at 4 ug/ml measured after 16 to 18 hrs in presence of imipenem by microbial dilution method; assay type: functional; details: dose 4 µg/ml, time 16-18 hrs
Klebsiella pneumoniae [14] = test: Synergistic antibacterial activity against carbapenem-resistant Klebsiella pneumoniae BAA-2473 assessed as reduction in microbial growth at 0.5 ug/ml measured after 16 to 18 hrs in presence of imipenem by microbial dilution method; assay type: functional; details: dose 0.5 µg/ml, time 16-18 hrs
[15] = test system: Klebsiella pneumoniae subsp. pneumoniae; test: Synergistic antibacterial activity against carbapenem-resistant Klebsiella pneumoniae subsp. pneumoniae BAA-2472 assessed as reduction in microbial growth at 0.5 ug/ml measured after 16 to 18 hrs in presence of meropenem by microbial dilution method; assay type: functional; details: dose 0.5 µg/ml, time 16-18 hrs
[16] = Plasma protein binding in human assessed as unbound fraction at 10 uM measured after 5 hrs by LC-MS/MS analysis; assay type: ADME, cell-free
[17] = Apparent permeability the compound in PBS buffer at pH 7.4 measured after 5 hrs by LC-MS/MS analysis; assay type: ADME; details: not told
Escherichia coli [18] = test: Synergistic antibacterial activity against carbapenem-resistant Escherichia coli 541588 assessed as reduction in microbial growth at 16 ug/ml measured after 16 to 18 hrs in presence of meropenem by microbial dilution method; assay type: functional; details: dose 16 µg/ml, time 16-18 hrs
Escherichia coli [19] = test: Synergistic antibacterial activity against carbapenem-resistant Escherichia coli BAA-2471 assessed as reduction in microbial growth at 8 ug/ml measured after 16 to 18 hrs in presence of meropenem by microbial dilution method; assay type: functional; details: dose 8 µg/ml, time 16-18 hrs
Escherichia coli [20] = test: Synergistic antibacterial activity against carbapenem-resistant Escherichia coli 571307 assessed as reduction in microbial growth at 16 ug/ml measured after 16 to 18 hrs in presence of meropenem by microbial dilution method; assay type: functional; details: dose 16 µg/ml, time 16-18 hrs
[21] = Metabolic stability in human liver microsomes assessed as parent compound remaining at 1 uM measured at 60 mins in presence of NADPH by LC-MS/MS analysis; assay type: ADME, Microsome; details: read-out: Stability
Escherichia coli [22] = test: Synergistic antibacterial activity against carbapenem-resistant Escherichia coli BAA-2469 assessed as reduction in microbial growth at 16 ug/ml measured after 16 to 18 hrs in presence of imipenem by microbial dilution method; assay type: functional; details: dose 16 µg/ml, time 16-18 hrs
Klebsiella pneumoniae [23] = test: Synergistic antibacterial activity against carbapenem-resistant Klebsiella pneumoniae 571278 assessed as reduction in microbial growth at 4 ug/ml measured after 16 to 18 hrs in presence of imipenem by microbial dilution method; assay type: functional; details: dose 4 µg/ml, time 16-18 hrs
Klebsiella pneumoniae [24] = test: Synergistic antibacterial activity against carbapenem-resistant Klebsiella pneumoniae 552439 assessed as reduction in microbial growth at 16 ug/ml measured after 16 to 18 hrs in presence of imipenem by microbial dilution method; assay type: functional; details: dose 16 µg/ml, time 16-18 hrs
HepG2 = test: Cytotoxicity in human HepG2 cells assessed as inhibition of cell growth measured after 24 hrs by MTT assay; assay type: functional, cell-based; details: HepG2, 24 h

## COc1ccc(Cl)cc1-c1c(C(=O)O)[nH]c2c1CCc1ccccc1-2
[1]
  IC50 at 24 h: > 200 µM
Escherichia coli [2]
  MIC: 4 µg/mL
Klebsiella pneumoniae [3]
  MIC: 8 µg/mL
Escherichia coli [4]
  MIC: 4 µg/mL
Klebsiella pneumoniae [5]
  MIC: 1 µg/mL
Escherichia coli [6]
  MIC: 1 µg/mL
[7]
  IC50: 0.021 µM
[8]
  MIC: 8 µg/mL
Klebsiella pneumoniae [9]
  MIC: 16 µg/mL
Escherichia coli [10]
  MIC: 32 µg/mL
Escherichia coli [11]
  MIC: 8 µg/mL
Escherichia coli [12]
  MIC: < 0.5 µg/mL
Klebsiella pneumoniae [13]
  MIC: 32 µg/mL
Klebsiella pneumoniae [14]
  MIC: 64 µg/mL
[15]
  MIC: > 64 µg/mL
[16]
  fraction unbound at 5 h, 10 µM: 0.992
[17]
  Papp at 5 h: 14 ×10⁻⁶ cm/s
Escherichia coli [18]
  MIC: 1 µg/mL
Escherichia coli [19]
  MIC: 16 µg/mL
Escherichia coli [20]
  MIC: 0.5 µg/mL
[21]
  remaining at 1 h, 1 µM: 56%
Escherichia coli [22]
  MIC: 4 µg/mL
Klebsiella pneumoniae [23]
  MIC: 8 µg/mL
Klebsiella pneumoniae [24]
  MIC: 1 µg/mL
HepG2
  IC50: > 400 µM
